Data taken from US20120115802A1, “Method for using ulipristal acetate with cytochrome isozyme modulators” (LABORATOIRE HRA PHARMA, priority 2010, published 2012).

Key:
[1] = Metabolism in liver microsomal preparations; format: in vitro ADME, mice, rats, rabbits, dogs, monkeys and humans; settings: in vitro
Description: Metabolism of ulipristal acetate was investigated in vitro in liver microsomal preparations from mice, rats, rabbits, dogs, monkeys and humans.

[2] = used within 72 hours of unprotected intercourse; cited from earlier work

## CC(=O)O[C@]1(C(C)=O)CC[C@H]2[C@@H]3CCC4=CC(=O)CCC4=C3[C@@H](c3ccc(N(C)C)cc3)C[C@@]21C [ulipristal acetate, 17α-acetoxy-11β-[4-N,N-dimethylamino-phenyl)-19-norpregna-4,9-diene-3,20-dione]
[1]; liver microsomes from mice, rats, rabbits, dogs, monkeys and humans, proportions varied between species
  Metabolites produced in liver microsomes across species: All species produced the same two major metabolites
[1]; liver microsomes, humans compared with the other species
  Metabolite unique to humans: No metabolite was detected which was unique to humans
[2]
  Efficacy for preventing pregnancy compared with levonorgestrel: as efficacious as levonorgestrel
